Holding throughout (assay type): cell-based
In experiment [1] the test system is human cervical epithelioid carcinoma (HeLa). Put plainly: In vitro anticancer assay (MTT), HeLa. Particulars: HeLa cells, 48 hrs, mean ± spread, read-out: Anti-proliferative evaluation IC50, HeLa. As to the method:
(§1) The resultant tetrazolium salt was then dissolved by the addition of dimethyl sulfoxide. Color was measured spectrophotometrically in a microtiter plate reader at 570 nm and used as a relative measure of viable cell number. The number of viable cells after treatment was compared to solvent and untreated control cells and used to determine the percent of control growth as (Abtreated/Abcontrol)×100, where Ab represents the mean absorbance (n=3). […] D. Heo et al. […] (+)-camptothecin (CPT) and doxorubicin hydrochloride (Dox) were used for comparison with the compounds according to this invention.

Experiment [2] relates to oral squamous cell carcinoma (SAS). Put plainly: In vitro anticancer assay (MTT), SAS. Particulars: SAS cells, 48 hrs, mean ± spread, read-out: Anti-proliferative evaluation IC50, SAS. As to the method: as §1
The subject of experiment [3] is hepatocellular carcinoma (SKHep1). Briefly: In vitro anticancer assay (MTT), SKHep1. Particulars: 48 hrs, mean ± spread, read-out: Anti-proliferative evaluation IC50, SKHep1. On the procedure:
as §1

Experiment [4] relates to human stomach adenocarcinoma (AGS). Put plainly: In vitro anticancer assay (MTT), AGS. To be noted: AGS cells, 48 hrs, mean ± spread, read-out: Anti-proliferative evaluation IC50, AGS. On the procedure: as §1
Experiment [5] deals with human renal clear cell carcinoma. Put plainly: In vitro anticancer assay (MTT), RCC 768-O. To be noted: RCC 768-O cells, 48 hrs, mean ± spread, read-out: Anti-proliferative evaluation IC50, RCC 768-O. On the procedure:
as §1

The subject of experiment [6] is esophageal carcinoma (CE81T). Put plainly: In vitro anticancer assay (MTT), CE81T. To be noted: CE81T cells, 48 hrs, mean ± spread, read-out: Anti-proliferative evaluation IC50, CE81T. As to the method: as §1
Where [7] appears, read: Homo sapiens, SK-HEP1, SKHep1 cells.

Where two headings read alike, the source gives them in different places.

As usually defined, the IC50 is the concentration that gives 50% inhibition. On to `CNCC(O)CN1CCN(c2nc3ccccc3c3c2-c2ccc(OC)cc2C3=O)CC1` (stereo not drawn) [Compound 5lll, 6-{4-[2-Hydroxy-3-(methylamino)propyl]piperazin-1-yl}-9-methoxy-11H-indeno[1,2-c]quinolin-11-one], for which the IC50 in experiment [1] (Homo sapiens) stood at 4.6 ± 1 µM; in experiment [2], 7.4 ± 0.7 µM; in experiment [3] (setting [7]), 3.4 ± 1.2 µM; in experiment [4] (Homo sapiens) it was 9.6 ± 3.8 µM; in experiment [5] (Homo sapiens), 6.4 ± 0.2 µM; in experiment [6], 0.9 ± 0.3 µM.
Regarding `COc1ccc2c(c1)C(=O)c1c-2c(N2CCN(C(=O)CNCCN)CC2)nc2ccccc12` [Compound 5mm], the IC50 in experiment [1] was 8.7 ± 1.8 µM; in experiment [2] it was above 30 µM; in experiment [3] (SKHep1 cells), 14.9 ± 3.6 µM; in experiment [4] it was 11.2 ± 1.5 µM; in experiment [5], 10.5 ± 1 µM; in experiment [6], above 30 µM.
In the case of `COc1ccc2c(c1)C(=O)c1c-2c(N2CCN(CC(O)CN(C)C)CC2)nc2ccccc12` (stereo not drawn) [Compound 5mmm], the concentration for half-maximal inhibition (IC50) in experiment [1] is 2.5 ± 0.7 µM; in experiment [2] it was 6.9 ± 0.5 µM; in experiment [3] (SKHep1 cells) it was 2.2 ± 0.8 µM; in experiment [4] it was 7.9 ± 3.8 µM; in experiment [5], 6.8 ± 0.1 µM; in experiment [6], 4.8 ± 4 µM.
As to `COc1ccc2c(c1)C(=O)c1c-2c(N2CCN(C(=O)CNCCO)CC2)nc2ccccc12` [Compound 5nn], the IC50 stood at 4.7 ± 2.3 µM in experiment [1]; 11.3 ± 0.3 µM in experiment [2]; 6.6 ± 0.9 µM in experiment [3] (SKHep1 cells); 6.5 ± 0.6 µM in experiment [4]; 6.7 ± 0.5 µM in experiment [5]; 9.2 ± 0.8 µM in experiment [6].
Take `COc1ccc2c(c1)C(=O)c1c-2c(N2CCN(C(=O)CNCCN(C)C)CC2)nc2ccccc12` [Compound 5oo]: the IC50 in experiment [1] was 8.2 ± 2.2 µM; in experiment [2], 19.5 ± 3.2 µM; in experiment [3] (SKHep1 cells), 16 ± 3.8 µM; in experiment [4] it was 14.1 ± 2.3 µM; in experiment [5], 9.4 ± 0.6 µM; in experiment [6], above 30 µM.
For the compound `COc1ccc2c(c1)C(=O)c1c-2c(N2CCN(C(=O)CNCCCN(C)C)CC2)nc2ccccc12` [Compound 5pp], the half-maximal inhibitory concentration (IC50) is 10.8 ± 3 µM in experiment [1]; above 30 µM in experiment [2]; 13.1 ± 2.7 µM in experiment [3] (SKHep1 cells); 5.6 ± 2.2 µM in experiment [4]; 10 ± 2.1 µM in experiment [5]; above 30 µM in experiment [6].
Turning to `COc1ccc(Nc2nc3ccccc3c3c2-c2ccc(OC)cc2C3=O)c(OC)c1` [Compound 5q], the half-maximal inhibitory concentration (IC50) was above 30 µM in experiment [1]; above 30 µM in experiment [2]; above 30 µM in experiment [3] (SKHep1 cells); above 30 µM in experiment [4]; above 30 µM in experiment [5]; 22.7 ± 1.5 µM in experiment [6].
Take `COc1ccc2c(c1)C(=O)c1c-2c(N2CCN(C(=O)CNCCNCCN)CC2)nc2ccccc12` [Compound 5qq]: the IC50 in experiment [1] was above 30 µM; in experiment [2], above 30 µM; in experiment [3] (SKHep1 cells) it was above 30 µM; in experiment [4], 15.5 ± 1.5 µM; in experiment [5], above 30 µM; in experiment [6], above 30 µM.
On to `COc1ccc2c(c1)C(=O)c1c-2c(N2CCN(C(=O)CNCCNCCO)CC2)nc2ccccc12` [Compound 5rr], for which the IC50 in experiment [1] came out at 6.6 ± 1.3 µM; in experiment [2], 8.6 ± 0.9 µM; in experiment [3] (SKHep1 cells), 11.9 ± 2.5 µM; in experiment [4], 3.5 ± 1.1 µM; in experiment [5], 7.6 ± 0.1 µM; in experiment [6], 6.6 ± 1.9 µM.
On to `COc1ccc2c(c1)C(=O)c1c-2c(N2CCN(C(=O)CNCCCN(C)CCCN)CC2)nc2ccccc12` [Compound 5ss], for which the IC50 in experiment [1] is above 30 µM; in experiment [2] it was above 30 µM; in experiment [3] (SKHep1 cells) it was 21.5 ± 7 µM; in experiment [4] it was 12.5 ± 5.2 µM; in experiment [5], 10.8 ± 1.1 µM; in experiment [6], above 30 µM.
For the compound `COc1ccc2c(c1)C(=O)c1c-2c(N2CCN(C(=O)CN3CCNCC3)CC2)nc2ccccc12` [Compound 5tt], the IC50 in experiment [1] is above 30 µM; in experiment [2], 7.4 ± 1.1 µM; in experiment [3] (SKHep1 cells), 2.2 ± 1.3 µM; in experiment [4], 3.4 ± 0.4 µM; in experiment [5] it was 4 ± 1.5 µM; in experiment [6] it was 7.2 ± 1.8 µM.
Take `COc1ccc2c(c1)C(=O)c1c-2c(N2CCN(C(=O)CN3CCOCC3)CC2)nc2ccccc12` [Compound 5uu]: the concentration for half-maximal inhibition (IC50) in experiment [1] is 18 ± 8.1 µM; in experiment [2] it was above 30 µM; in experiment [3] (SKHep1 cells), 19.9 ± 10 µM; in experiment [4] it was 21.4 ± 0.2 µM; in experiment [5], above 30 µM; in experiment [6], above 30 µM.
In the case of `COc1ccc2c(c1)C(=O)c1c-2c(N2CCC(N)C2)nc2ccccc12` (stereo not drawn) [Compound 5v], the concentration for half-maximal inhibition (IC50) in experiment [1] was above 30 µM; in experiment [2] it was above 30 µM; in experiment [3] (SKHep1 cells), 26.9 ± 19.5 µM; in experiment [4], above 30 µM; in experiment [5], above 30 µM; in experiment [6], above 30 µM.
As for `COc1ccc2c(c1)C(=O)c1c-2c(N2CCN(C(=O)CNCCN3CCNCC3)CC2)nc2ccccc12` [Compound 5vv], the IC50 in experiment [1] was found to be 5.4 ± 2 µM; in experiment [2] it was 8.9 ± 0.1 µM; in experiment [3] (SKHep1 cells), 6.4 ± 0.6 µM; in experiment [4], 7.3 ± 0.1 µM; in experiment [5] it was 5.6 ± 0.9 µM; in experiment [6], 8.4 ± 2 µM.
On to `COc1ccc2c(c1)C(=O)c1c-2c(N2CCC(N)CC2)nc2ccccc12` [Compound 5w], for which the IC50 in experiment [1] was found to be 1.1 ± 0.3 µM; in experiment [2], 8.4 ± 2.6 µM; in experiment [3] (SKHep1 cells), 2.6 ± 0.9 µM; in experiment [4], 7.4 ± 0.6 µM; in experiment [5] it was 5.3 ± 1 µM; in experiment [6], 1.4 ± 0.7 µM.
In the case of `COc1ccc2c(c1)C(=O)c1c-2c(N2CCN(C(=O)CCO)CC2)nc2ccccc12` [Compound 5ww], the 50% inhibitory concentration (IC50) is 10.6 ± 1.6 µM in experiment [1]; above 30 µM in experiment [2]; 21.9 ± 6.4 µM in experiment [3] (SKHep1 cells); 9.5 ± 0.3 µM in experiment [4]; 18.5 ± 2.1 µM in experiment [5]; above 30 µM in experiment [6].
Consider `CNCCC(=O)N1CCN(c2nc3ccccc3c3c2-c2ccc(OC)cc2C3=O)CC1` [Compound 5xx], for which the IC50 in experiment [1] was 1.9 ± 0.8 µM; in experiment [2], 6.9 ± 0.7 µM; in experiment [3] (SKHep1 cells), 9.1 ± 4.8 µM; in experiment [4], 8.1 ± 1.1 µM; in experiment [5], 6 ± 1.4 µM; in experiment [6], 3.8 ± 0.6 µM.
On to `COc1ccc2c(c1)C(=O)c1c-2c(N2CCNC(C)C2)nc2ccccc12` (stereo not drawn) [Compound 5y], for which the concentration for half-maximal inhibition (IC50) in experiment [1] was 3.4 ± 1 µM; in experiment [2], 13.4 ± 2.6 µM; in experiment [3] (SKHep1 cells), 2.9 ± 0.5 µM; in experiment [4] it was 7.9 ± 1.2 µM; in experiment [5], 13.6 ± 5.5 µM; in experiment [6], 3.3 ± 2.2 µM.
As to `COc1ccc2c(c1)C(=O)c1c-2c(N2CCN(C(=O)CCN(C)C)CC2)nc2ccccc12` [Compound 5yy], the IC50 in experiment [1] is 11.7 ± 1.7 µM; in experiment [2], 17 ± 2.9 µM; in experiment [3] (SKHep1 cells) it was 16.6 ± 2 µM; in experiment [4], 8.1 ± 1.1 µM; in experiment [5] it was 11.5 ± 1.8 µM; in experiment [6] it was above 30 µM.
Take `COc1ccc2c(c1)C(=O)c1c-2c(N2CCCNCC2)nc2ccccc12` [Compound 5z]: the half-maximal inhibitory concentration (IC50) came out at 3 ± 1.3 µM in experiment [1]; 10.2 ± 2.5 µM in experiment [2]; 6.2 ± 0.7 µM in experiment [3] (SKHep1 cells); 7.1 ± 1.1 µM in experiment [4]; 10.2 ± 6.5 µM in experiment [5]; 4.9 ± 1.3 µM in experiment [6].
With `COc1ccc2c(c1)C(=O)c1c-2c(N2CCN(C(=O)CCNCCN)CC2)nc2ccccc12` [Compound 5zz], the IC50 in experiment [1] was 11.4 ± 0.4 µM; in experiment [2], above 30 µM; in experiment [3] (SKHep1 cells), 19 ± 3.2 µM; in experiment [4], 9 ± 2 µM; in experiment [5], above 30 µM; in experiment [6], above 30 µM.
Consider `COc1ccc2c(c1)C(=NO)c1c-2c(OC)nc2ccccc12` [Compound 6e], for which the IC50 in experiment [1] is 8.4 ± 1.2 µM; in experiment [2], 9.5 ± 2.1 µM; in experiment [3] (SKHep1 cells), 8.7 ± 2.1 µM; in experiment [4] it was 6.8 ± 1.4 µM; in experiment [5], above 30 µM; in experiment [6], above 30 µM.
Regarding `ON=C1c2ccccc2-c2c(N3CCNCC3)nc3ccccc3c21` [Compound 6i], the concentration for half-maximal inhibition (IC50) in experiment [1] was found to be 5.1 ± 0.6 µM; in experiment [2] it was 7.3 ± 1.5 µM; in experiment [3] (SKHep1 cells) it was 4.6 ± 1.1 µM; in experiment [4], 7.6 ± 1.4 µM; in experiment [5], 6.3 ± 1.3 µM; in experiment [6] it was 3.5 ± 2.7 µM.
As to `CON=C1c2ccccc2-c2c(N3CCNCC3)nc3ccccc3c21` [Compound 6j, 6-(Piperazin-1-yl)-11H-indeno[1,2-c]quinolin-11-one O-methyl oxime], the IC50 in experiment [1] (Homo sapiens) amounted to 6.2 ± 0.6 µM; in experiment [2], 7.7 ± 1 µM; in experiment [3] (setting [7]), 6.1 ± 0.8 µM; in experiment [4] (Homo sapiens), 8.1 ± 2.1 µM; in experiment [5] (Homo sapiens) it was 7.7 ± 0.5 µM; in experiment [6], 0.4 µM.
Turning to `ON=C1c2cc(F)ccc2-c2c(N3CCNCC3)nc3ccccc3c21` [Compound 6k], the IC50 in experiment [1] is 1.7 ± 0.2 µM; in experiment [2], 4.4 ± 1.4 µM; in experiment [3] (SKHep1 cells), 0.9 ± 0.3 µM; in experiment [4], above 30 µM; in experiment [5] it was 2.3 ± 0.6 µM; in experiment [6], 3.3 ± 1.8 µM.
As to `CON=C1c2cc(F)ccc2-c2c(N3CCNCC3)nc3ccccc3c21` [Compound 6l], the IC50 in experiment [1] was found to be 4.9 ± 0.6 µM; in experiment [2], 7.9 ± 0.3 µM; in experiment [3] (SKHep1 cells), 5.9 ± 1.1 µM; in experiment [4], 7.6 ± 3.4 µM; in experiment [5], 7 ± 0.7 µM; in experiment [6], 3.4 ± 0.3 µM.

For the origin of these results see patent US7829567B2, “Imino-indeno[1,2-c] quinoline derivatives, their preparation processes, and pharmaceutical compositions comprising the same” (Kaohsiung Medical University, priority 2007, dated 2010).
